Assay [1] relates to STAT3. Kind of assay: Serum-induced STAT3 tyrosine phosphorylation (immunoblot). Format: cell-based, human. As for the experimental part:
(§1) For immunoprecipitation and immunoblotting experiments, cells were grown to confluence in 10 cm dishes and maintained in full medium or starved in serum-free medium overnight before the application of appropriate stimuli. Lysates were prepared in TBSN buffer (50 mM Tris-HCl pH7.5, 150 mM NaCl, 1 mM EDTA, 1% NP-40) supplemented with protease inhibitors (1 mM Na3 VO4, 10 mM Na4P2O7, 10 mM NaF, 5 mM EGTA, 10 mM Benzamidine, 0.2 mM PMSF and 1 μg/ml each of leupeptin, aprotinin, pepstatin). Lysates were cleared by centrifugation at 16,000×g for 10 minutes and used directly for immunoprecipitations or stored at −20° C. for further use.
Equal amounts of lysates were incubated with the appropriate antibody for 2 hours at 4° C.
Immune complexes were then allowed to bind to protein A-Sepharose beads for 1 hour at 4° C. and collected by centrifugation. Immunoprecipitates were washed three times in 100 mM Tris-HC1 pH 7.5, […], 1 mM EDTA, 0.1 mM PMSF, 0.5% NP-40. Thereafter, samples were taken up in sodium dodecyl sulphate (SDS) loading buffer and boiled for 5 min.
Samples were separated by electrophoresis through 6% polyacrylamide-SDS gels. Proteins were then transferred to polyvinylidene difluoride (PVDF) membranes with a semi-dry electroblotting apparatus. The membranes were incubated with appropriate primary antibodies at room temperature for 1 hour or 4° C. overnight according to suppliers' instructions, washed and stained with horseradish peroxidase-coupled secondary antibodies. The membranes were developed with an enhanced chemiluminescence kit (Amersham).
as §1, with “Na3VO4,” for “Na3 VO4,”, “aprotinin and” for “aprotinin,”, “use. AG490 was purchased from Sigma; PD153035 was provided by Glaxo-Smith-Kline and PD168393 was purchased from Calbiochem.” for “use.”
Equal amounts of lysates were incubated with the appropriate antibody for 2 hours at 4° C. Immune complexes were then allowed to bind to protein A-Sepharose beads for 1 hour at 4° C. and collected by centrifugation. Immunoprecipitates were washed three times in 10 mM Tris-HCl pH 7.5, 100 mM NaCl, 1 mM EDTA, 0.1 mM PMSF, 0.5% NP-40. Thereafter, samples were taken up in sodium dodecyl sulphate (SDS) loading buffer and boiled for 5 min.
(In western blotting, separated proteins are transferred to a membrane and probed.)

The test system of assay [2] is MCF-7 cells. The experiment in a line: DAPI staining, confocal microscopy (apoptosis). The class given is cell-based, human. The note with it: growing cells treated; 100 μM (FIG. 17). As for the experimental part:
OdDHL induces apoptosis of BC cells (a) MCF-7 cells were cultured in full medium alone or in the presence of 1001M OdDHL or 100 μM OHHL. […] Left-hand panels show DAPI, right-hand panels show the corresponding phase contrast and middle panels the image overlays. (b) MDA-MB-468 cells were cultured in full medium alone or in the presence of 100 μM OdDHL or 100 μM OHHL. After 18 hours cells were fixed, stained and examined as in (a). (c) BR293, MCF-7 and MDA-MD-468 cells were cultured in full medium alone (lanes 1, 3, 5) or in the presence of 100 μM OdDHL (lanes 2, 4, 6) or 400 μM etoposide (lane 7). After 18 hours cells were lysed and analysed for PARP cleavage by Western blotting with an anti-PARP antibody. Full length PARP is labelled and the lower arrow indicates the major caspase cleavage fragment.

In assay [3] the test system is murine STAT3. Kind of assay: STAT3-dependent luciferase reporter (SIE2-luc) in transfected COS-1 cells. The settings on record: COS-1 cells transfected with murine STAT3. Format: cell-based.
Method: (c) COS-1 cells were transfected with an expression vector for STAT3, a STAT3-responsive luciferase reporter (SIE2-luc) and a control gene for β-galactosidase. […] After 6 hours cells were harvsted and reporter gene expression analysed. Results are normalised against β-galactosidase values and expressed as averages +/−SD (n=3).
Assay [4] concerns MDA-MB-468 cells. The experiment in a line: Cell proliferation assay (cell counting). The class given is cell-based, human. The settings on record: over a 48-hour period. As for the experimental part:
Equal numbers of BR293 and MDA-MB-468 cells were seeded in MEM containing 10% FCS into 10 cm dishes. […]. For the 48 time points, fresh medium containing the appropriate inhibitor was applied to the cells after 24 hours. Controls were allowed to grow for 48 hours in the absence of inhibitor. Thereafter, all the cells were washed twice with ice cold PBS, harvested and counted under a phase-contrast microscope. Values are expressed as averages+S.D. (n=3).
(§2) Equal numbers of BR293, MCF-10F, MCF-7, MDA-MB-468, HKEK293 and COS1 cells were seeded in the appropriate growth medium into 10 cm dishes. Cells were allowed to grow in the presence of various concentrations of OdDHL or OHHL for 24 or 48 hours. For the 48-hour time points, fresh medium containing the appropriate inhibitor was applied to the cells after 24 hours. Controls were allowed to grow for 48 hours in the absence of inhibitor. Thereafter, all the cells were washed twice with ice cold PBS, harvested and counted under a phase-contrast microscope. Values are expressed as averages ±S.D. (n=3).

In assay [5] the test system is HEK293 cells. The experiment in a line: Cell proliferation assay (cell counting). The class given is cell-based, human. The settings on record: cells with constitutive STAT3 activity; 48 hours. As to the method:
as §2

Assay [6] has as its system MCF-7 cells. The experiment in a line: Cell proliferation assay (cell counting). The class given is cell-based, human. The settings on record: over a 48-hour period. As for the experimental part:
as §2

Assay [7] has as its system p46/p54 JNK/SAPK. Kind of assay: JNK/SAPK phosphorylation in anisomycin-treated cells (Western blotting). The settings on record: BR293 cells treated with anisomycin. The class given is cell-based, human. As to the method:
(§3) ERKs are unaffected by OdDHL (a) BR293 cells were serum-starved (lane 1) or starved and stimulated with TPA for 30 min alone (lane 2) or in the presence of increasing concentrations of OdDHL (lanes 3-6) or 100 μM OHHL (lane 7). Cell lysates were prepared and analysed by Western blotting for ERK phosphorylation with an antibody specific for phospho-ERK½ (upper panel) and for ERK content with an antibody against ERKs (lower panel). (b) BR293 cells were serum-starved (lane 1) or starved and stimulated with Anisomycin for 30 min alone (lane 2) or in the presence of increasing concentrations of OdDHL (lanes 3-6) or 100 μM OHHL (lane 7). Cell lysates were prepared and analysed by Western blotting for JNK/SAPK phosphorylation with an antibody specific for phospho-JNKs (upper panel) and for SAPK/JNK content with an antibody against JNKs (lower panel). (c) BR293 cells were treated as described in (b) and lysates were analysed by Western blotting for p38^MAPK phosphorylation with an antibody specific for phospho-p38 (upper panel) and for p38 content with an antibody against p38 (lower panel).

Assay [8] deals with p38^MAPK. Kind of assay: p38 MAPK phosphorylation in anisomycin-treated cells (Western blotting). The class given is cell-based, human. The note with it: BR293 cells treated with anisomycin. As for the experimental part: as §3

The values below come from patent US20040259942A1, “Modulation of stat activity” (priority 2001, published 2004).

On to `CCCC(=O)CC(=O)N[C@H]1CCOC1=O` [OHHL, N-(3-oxohexanoyl)-L-homoserine lactone, reference compound], for which the “effect on serum-induced STAT3 tyrosine phosphorylation” value in assay [1] (BR293 cells, 100 μM) is reported as “only a slight effect”. For the same compound, the “nuclear integrity by DAPI staining” value in assay [2] is “unaffected”. Besides, the “EGF-stimulated STAT3-dependent reporter gene expression, effect of co-treatment” value in assay [3] is “had no effect”.
`CCCCCCCCCC(=O)CC(=O)N[C@H]1CCOC1=O` [OdDHL, N-(3-oxo-dodecanoyl)-L-homoserine lactone]: the “STAT3 phosphorylation at sub-inhibitory concentration” value in assay [1] (BR293 cells, 50 μM OdDHL) is reported as “small increase”. Moreover, in assay [1] (BR293 cells, 100 μM pretreatment (FIG. 18c)), the “delayed STAT3 phosphorylation in response to serum” value is listed as “prevented the delayed STAT3 phosphorylation in response to serum”. In addition, in assay [1] (BR293 cells, pre-incubation (FIG. 11 upper panel)), the “serum-induced phosphorylation of STAT3” value is listed as “blocked the serum-induced phosphorylation of STAT3”. Moreover, the “concentration at which serum-induced STAT3 tyrosine phosphorylation was inhibited” value in assay [1] (BR293 cells, pretreatment 15 minutes with increasing concentrations) was 100 µM. Further, the “threshold concentration for inactivation of serum-induced STAT3 phosphorylation” value in assay [1] (FIG. 15) was “above 50 μM”. Also, the inhibition of proliferation in assay [4] and in assay [6] was 70%-80% in each case. The “growth sensitivity to treatment” value in assay [5] is on record as “sensitive”. The “nuclear integrity by DAPI staining” value in assay [2] was “nuclear disruption”. In addition, in assay [7], the “p46/p54 JNK/SAPK phosphorylation” value is “modest but reproducible inhibition”. For the same compound, the “p38^MAPK phosphorylation” value in assay [8] is “modest but reproducible inhibition”. The “EGF-stimulated STAT3-dependent reporter gene expression, effect of co-treatment” value in assay [3] is on record as “augmented”.
